Measurements as given in patent publication US12569438B2, “Nanomaterials containing constrained lipids and uses thereof” (GEORGIA TECH RESEARCH CORPORATION, priority 2019, dated 2026).

System: splenic T cells
Assay: DNA barcode/siGFP high throughput in vivo screen: delivery and enrichment of pooled LNPs in GFP^Low splenic T cells
Parameters: species or system mice
Details: pooled LNPs 1.5 mg/kg total iv, 3 days
Source text: DNA Barcoding. Each chemically distinct LNP was formulated to carry its own unique DNA barcode and siRNA. For example, LNP1 carried DNA barcode 1 and siICAM2, while the chemically distinct LNP2 carried DNA barcode 2 and siGFP. Single stranded DNA sequences were purchased from Integrated DNA Technologies (IDT). To ensure equal amplification of each sequence, we included universal forward and reverse primer regions. Each barcode was distinguished using a unique 8 nucleotide sequence. An 8 nucleotide sequence can generate 65,536 distinct barcodes. 156 distinct sequences designed to prevent sequence ‘bleaching’ on the Illumina MiniSeq sequencing machine were used.
Animal Experiments. […] Mice were injected intravenously via the lateral tail vein. The nanoparticle concentration was determined using NanoDrop (Thermo Scientific).
Cell Isolation & Staining. […]
LNP delivery of siRNA to target cells (in this case, T lymphocytes) as well as 8 off-target cell types in vivo was evaluated. siGFP chemically modified to reduce immunostimulation and enhance on-target silencing via preferential antisense RISC loading (FIG. S2A) was used. […] The GFP acted as the functional delivery readout. […] Thus, 3 days after injecting mice, GFP^Low cells were isolated using fluorescence activated cell sorting (FACS), and deep sequenced to quantify the efficiency with which all N LNPs delivered barcodes into the cells. […]

`CCCCC/C=C\C/C=C\CCCCCCCC(=O)OCC(COC(=O)C[C@]12CC3CC(C[C@@H](C3)C1)C2)COC(=O)OCCCN(CC)CC` (some centres unmarked) [Lipomer 11-A, 3-[(1-Adamantanyl)acetoxy]-2-{[3-(diethylamino)propoxycarbonyloxy]methyl}propyl (9Z,12Z)-9,12-octadecadienoate] was tested, and the “Normalized DNA delivery” value (GFP^Low splenic T cells) was “significantly more delivery than 11-L and 11-S” and the “Enrichment in T Cells” value (splenic T cells, top 10% vs bottom 10% LNPs, DSPC formulations) was “most enriched”.
